# Test results taken from article PMC11003488 (Journal of Enzyme Inhibition and Medicinal Chemistry, 2023).
# Tests used:
# Test in all cases: NCI-60 SRB growth inhibition, one-dose and five-dose
# Type in all cases: cell-based
# [1] = tested on: CCRF-CEM; conditions: Homo sapiens; for inhibition at 10 µM: read-out: percent growth inhibition
# [2] = tested on: K-562; conditions: Homo sapiens; for GI50: K562; for inhibition at 10 µM: K562, read-out: percent growth inhibition
# [3] = tested on: RPMI-8226; conditions: Homo sapiens; for GI50: RPMI-8226; for inhibition at 10 µM: RPMI-8226, read-out: percent growth inhibition
# [4] = tested on: SR; conditions: Homo sapiens
# [5] = tested on: A549/ATCC; conditions: Homo sapiens; for GI50: A549; for inhibition at 10 µM: A549, read-out: percent growth inhibition
# [6] = tested on: EKVX; conditions: Homo sapiens; for inhibition at 10 µM: read-out: percent growth inhibition
# [7] = tested on: HOP-62; conditions: Homo sapiens; for GI50: HOP-62; for inhibition at 10 µM: HOP-62, read-out: percent growth inhibition
# [8] = tested on: HOP-92; conditions: Homo sapiens; for GI50: HOP-92; for inhibition at 10 µM: HOP-92, read-out: percent growth inhibition
# [9] = tested on: NCI-H226; conditions: Homo sapiens; for GI50: NCI-H226; for inhibition at 10 µM: NCI-H226, read-out: percent growth inhibition
# [10] = tested on: NCI-H23; conditions: Homo sapiens; for GI50: NCI-H23; for inhibition at 10 µM: NCI-H23, read-out: percent growth inhibition
# [11] = tested on: NCI-H322M; conditions: Homo sapiens; for inhibition at 10 µM: read-out: percent growth inhibition
# [12] = tested on: NCI-H460; conditions: Homo sapiens; for GI50: NCI-H460; for inhibition at 10 µM: NCI-H460, read-out: percent growth inhibition
# [13] = tested on: NCI-H522; conditions: Homo sapiens; for GI50: NCI-H522; for inhibition at 10 µM: NCI-H522, read-out: percent growth inhibition
# [14] = tested on: HCC-2998; conditions: Homo sapiens; for GI50: HCC 2998; for inhibition at 10 µM: HCC 2998, read-out: percent growth inhibition
# [15] = tested on: HT29; conditions: Homo sapiens; for GI50: HT-29; for inhibition at 10 µM: HT-29, read-out: percent growth inhibition
# [16] = tested on: KM12; conditions: Homo sapiens; for GI50: KM12; for inhibition at 10 µM: KM12, read-out: percent growth inhibition
# [17] = tested on: SW-620; conditions: Homo sapiens; for GI50: SW-620; for inhibition at 10 µM: SW-620, read-out: percent growth inhibition
# [18] = tested on: SF-268; conditions: Homo sapiens; for GI50: SF-268; for inhibition at 10 µM: SF-268, read-out: percent growth inhibition
# [19] = tested on: SNB-75; conditions: Homo sapiens; for GI50: SNB-75; for inhibition at 10 µM: SNB-75, read-out: percent growth inhibition
# [20] = tested on: U251; conditions: Homo sapiens; for GI50: U-251; for inhibition at 10 µM: U-251, read-out: percent growth inhibition
# [21] = tested on: LOX IMVI; conditions: Homo sapiens; for inhibition at 10 µM: read-out: percent growth inhibition
# [22] = tested on: MALME-3M; conditions: Homo sapiens; for inhibition at 10 µM: read-out: percent growth inhibition
# [23] = tested on: M14; conditions: Homo sapiens; for GI50: M14; for inhibition at 10 µM: M14, read-out: percent growth inhibition
# [24] = tested on: MDA-MB-435; conditions: Homo sapiens; for GI50: MDA-MB-435; for inhibition at 10 µM: MDA-MB-435, read-out: percent growth inhibition
# [25] = tested on: SK-MEL-2; conditions: Homo sapiens; for inhibition at 10 µM: SK-MEL-2, read-out: percent growth inhibition
# [26] = tested on: SK-MEL-28; conditions: Homo sapiens; for GI50: SK-MEL-28; for inhibition at 10 µM: SK-MEL-28, read-out: percent growth inhibition
# [27] = tested on: SK-MEL-5; conditions: Homo sapiens; for GI50: SK-MEL-5; for inhibition at 10 µM: SK-MEL-5, read-out: percent growth inhibition
# [28] = tested on: UACC-62; conditions: Homo sapiens; for GI50: UACC-62; for inhibition at 10 µM: UACC-62, read-out: percent growth inhibition
# [29] = tested on: OVCAR-8; conditions: Homo sapiens; for inhibition at 10 µM: OVCAR-8, read-out: percent growth inhibition
# [30] = tested on: NCI/ADR-RES; conditions: Homo sapiens
# [31] = tested on: SK-OV-3; conditions: Homo sapiens; for GI50: SK-OV-3; for inhibition at 10 µM: SK-OV-3, read-out: percent growth inhibition
# [32] = tested on: 786-0; conditions: Homo sapiens; for GI50: 786-0; for inhibition at 10 µM: 786-0, read-out: percent growth inhibition
# [33] = tested on: A498; conditions: Homo sapiens; for GI50: A498; for inhibition at 10 µM: A498, read-out: percent growth inhibition
# [34] = tested on: ACHN; conditions: Homo sapiens; for inhibition at 10 µM: read-out: percent growth inhibition
# [35] = tested on: CAKI-1; conditions: Homo sapiens; for GI50: CAKI-1; for inhibition at 10 µM: CAKI-1, read-out: percent growth inhibition
# [36] = tested on: SN12C; conditions: Homo sapiens; for inhibition at 10 µM: read-out: percent growth inhibition
# [37] = tested on: TK-10; conditions: Homo sapiens; for GI50: TK-10; for inhibition at 10 µM: TK-10, read-out: percent growth inhibition
# [38] = tested on: PC-3; conditions: Homo sapiens; for GI50: PC-3; for inhibition at 10 µM: PC-3, read-out: percent growth inhibition
# [39] = tested on: DU-145; conditions: Homo sapiens; for GI50: DU-145; for inhibition at 10 µM: DU-145, read-out: percent growth inhibition
# [40] = tested on: MCF7; conditions: Homo sapiens; for GI50: MCF7; for inhibition at 10 µM: MCF7, read-out: percent growth inhibition
# [41] = tested on: BT-549; conditions: Homo sapiens; for GI50: BT-549; for inhibition at 10 µM: BT-549, read-out: percent growth inhibition
# [42] = tested on: T-47D; conditions: Homo sapiens, T47D; for inhibition at 10 µM: read-out: percent growth inhibition
# [43] = tested on: MDA-MB-468; conditions: Homo sapiens; for GI50: MDA-MB-468; for inhibition at 10 µM: MDA-MB-468, read-out: percent growth inhibition
# [44] = read-out: percent growth inhibition
compound,measurement,setting,value
"COc1ccc(CNc2cccc(C(=O)/C=C/c3cccnc3)c2)cc1OC [Compound 5c, (E)-1–(3-((3,4-dimethoxybenzyl)amino)phenyl)-3-(pyridin-3-yl)prop-2-en-1-one]",GI50,[1],2.55 µM
same,inhibition at 10 µM,[1],87.1%
same,GI50,[2],2.71 µM
same,inhibition at 10 µM,[2],89%
same,GI50,[3],2.14 µM
same,inhibition at 10 µM,[3],99.7%
same,GI50,[4],2.48 µM
same,inhibition at 10 µM,[4]; [44],92%
same,GI50,[5],17.2 µM
same,inhibition at 10 µM,[5],17.6%
same,GI50,[6],10.4 µM
same,inhibition at 10 µM,[6],62.3%
same,GI50,[7],12.2 µM
same,inhibition at 10 µM,[7],30%
same,GI50,[8],11 µM
same,inhibition at 10 µM,[8],36.8%
same,GI50,[9],14.7 µM
same,inhibition at 10 µM,[9],19.7%
same,GI50,[10],1.99 µM
same,inhibition at 10 µM,[10],73.6%
same,GI50,[11],14.8 µM
same,inhibition at 10 µM,[11],14.2%
same,GI50,[12],5.22 µM
same,inhibition at 10 µM,[12],69%
same,GI50,[13],13.6 µM
same,inhibition at 10 µM,[13],138%
same,GI50,[14],2.04 µM
same,inhibition at 10 µM,[14],75.8%
same,GI50,[15],4.38 µM
same,inhibition at 10 µM,[15],178%
same,GI50,[16],1.99 µM
same,inhibition at 10 µM,[16],165%
same,GI50,[17],2.31 µM
same,inhibition at 10 µM,[17],177%
same,GI50,[18],5.86 µM
same,inhibition at 10 µM,[18],40.4%
same,GI50,[19],12.9 µM
same,inhibition at 10 µM,[19],34.2%
same,GI50,[20],3.62 µM
same,inhibition at 10 µM,[20],124%
same,GI50,[21],1.76 µM
same,inhibition at 10 µM,[21],192%
same,GI50,[22],12.5 µM
same,inhibition at 10 µM,[22],101%
same,GI50,[23],3.82 µM
same,inhibition at 10 µM,[23],146%
same,GI50,[24],2.46 µM
same,inhibition at 10 µM,[24],84.7%
same,GI50,[25]; SK-MEL-2,15.1 µM
same,inhibition at 10 µM,[25],23.5%
same,GI50,[26],5.22 µM
same,inhibition at 10 µM,[26],98.4%
same,GI50,[27],5.86 µM
same,inhibition at 10 µM,[27],103%
same,GI50,[28],10.5 µM
same,inhibition at 10 µM,[28],61.1%
same,GI50,[29]; OVCAR-8,4.01 µM
same,inhibition at 10 µM,[29],85.1%
same,GI50,[30],2.96 µM
same,GI50,[31],16.6 µM
same,inhibition at 10 µM,[31],41.8%
same,GI50,[32],3.68 µM
same,inhibition at 10 µM,[32],133%
same,GI50,[33],13.6 µM
same,inhibition at 10 µM,[33],20%
same,GI50,[34],3.95 µM
same,inhibition at 10 µM,[34],132%
same,GI50,[35],10.2 µM
same,inhibition at 10 µM,[35],39.8%
same,GI50,[36],11.8 µM
same,inhibition at 10 µM,[36],83.7%
same,GI50,[37],8.14 µM
same,inhibition at 10 µM,[37],23.9%
same,GI50,[38],8 µM
same,inhibition at 10 µM,[38],89%
same,GI50,[39],12.4 µM
same,inhibition at 10 µM,[39],60.5%
same,GI50,[40],1.89 µM
same,inhibition at 10 µM,[40],186%
same,GI50,[41],2.57 µM
same,inhibition at 10 µM,[41],135%
same,GI50,[42],10 µM
same,inhibition at 10 µM,[42],105%
same,GI50,[43],4.06 µM
same,inhibition at 10 µM,[43],157%
"O=C(/C=C/c1cccnc1)c1cccc(NCc2csc3ccccc23)c1 [Compound 5d, (E)-1–(3-((benzo[b]thiophen-3-ylmethyl)amino)phenyl)-3-(pyridin-3-yl)prop-2-en-1-one]",GI50,[1],3.01 µM
same,inhibition at 10 µM,[1],134%
same,GI50,[2],3.14 µM
same,inhibition at 10 µM,[2],111%
same,GI50,[3],1.99 µM
same,inhibition at 10 µM,[3],119%
same,GI50,[4],2.51 µM
same,GI50,[5],11.5 µM
same,inhibition at 10 µM,[5],53.1%
same,GI50,[6],3.98 µM
same,inhibition at 10 µM,[6],106%
same,GI50,[7],10.2 µM
same,inhibition at 10 µM,[7],65.2%
same,GI50,[8],10.2 µM
same,inhibition at 10 µM,[8],39.4%
same,GI50,[9],3.43 µM
same,inhibition at 10 µM,[9],111%
same,GI50,[10],3.94 µM
same,inhibition at 10 µM,[10],139%
same,GI50,[11],11.5 µM
same,inhibition at 10 µM,[11],42.6%
same,GI50,[12],4.98 µM
same,inhibition at 10 µM,[12],91.3%
same,GI50,[13],1.78 µM
same,inhibition at 10 µM,[13],170%
same,GI50,[14],3.66 µM
same,inhibition at 10 µM,[14],188%
same,GI50,[15],3.12 µM
same,inhibition at 10 µM,[15],165%
same,GI50,[16],3.58 µM
same,inhibition at 10 µM,[16],158%
same,GI50,[17],1.84 µM
same,inhibition at 10 µM,[17],166%
same,GI50,[18],12 µM
same,inhibition at 10 µM,[18],69.7%
same,GI50,[19],3.34 µM
same,inhibition at 10 µM,[19],69.9%
same,GI50,[20],1.92 µM
same,inhibition at 10 µM,[20],198%
same,GI50,[21],1.69 µM
same,inhibition at 10 µM,[21],198%
same,GI50,[22],5.92 µM
same,inhibition at 10 µM,[22],104%
same,GI50,[23],4.14 µM
same,inhibition at 10 µM,[23],129%
same,GI50,[24],2.55 µM
same,inhibition at 10 µM,[24],121%
same,inhibition at 10 µM,[25],74%
same,GI50,[26],3.55 µM
same,inhibition at 10 µM,[26],145%
same,GI50,[27],2.89 µM
same,inhibition at 10 µM,[27],163%
same,GI50,[28],3.75 µM
same,inhibition at 10 µM,[28],151%
same,inhibition at 10 µM,[29],119%
same,GI50,[30],2.15 µM
same,inhibition at 10 µM,[30]; [44],101%
same,GI50,[31],11.8 µM
same,inhibition at 10 µM,[31],35.8%
same,GI50,[32],8.65 µM
same,inhibition at 10 µM,[32],182%
same,GI50,[33],12.1 µM
same,inhibition at 10 µM,[33],36.5%
same,GI50,[34],2.82 µM
same,inhibition at 10 µM,[34],155%
same,GI50,[35],9.3 µM
same,inhibition at 10 µM,[35],98.3%
same,GI50,[36],3.02 µM
same,inhibition at 10 µM,[36],128%
same,GI50,[37],6.18 µM
same,inhibition at 10 µM,[37],60%
same,GI50,[38],3.76 µM
same,inhibition at 10 µM,[38],99.2%
same,GI50,[39],7.35 µM
same,inhibition at 10 µM,[39],71.9%
same,GI50,[40],1.58 µM
same,inhibition at 10 µM,[40],176%
same,GI50,[41],2.75 µM
same,inhibition at 10 µM,[41],174%
same,GI50,[42],2.83 µM
same,inhibition at 10 µM,[42],91.2%
same,GI50,[43],1.82 µM
same,inhibition at 10 µM,[43],162%
